In US8178505B2, “Method of predicting and reducing risk of metastasis of breast cancer to lung” (Sloan-Kettering Institute for Cancer Research, priority 2005, dated 2012):

Tests used:
[1] = system: malignant cell lines; conditions: in culture; cited from earlier work
[2] = system: MMP-1, 3, 9, 10 and 11; conditions: cited from earlier work
[3] = system: LM2 cells; experiment: Lung metastasis formation after tail vein injection of LM2 cells, pharmacological targeting, bioluminescence imaging; type: in vivo, Balb/c nude mice; conditions: preliminary results; drugs individually or in combination; FIGS. 2A and 2B
Method: Animal studies. All animal work was done in accordance with an IACUC approved protocol. Four to 6-week-old Balb/c nude mice (NCI) were used for all xenografting studies. For lung metastasis formation, 2×10^5 viable cells were washed and harvested in PBS and subsequently injected into the lateral tail vein in a volume of 0.1 mL. Endpoint assays were conducted at 15 weeks post-injection unless significant morbidity required that the mouse be sacrificed earlier. […] Mice were imaged for luciferase activity immediately after injection to exclude any that were not successfully xenografted.
Bioluminescent imaging and analysis. Mice were anesthetized and retro-orbitally injected with 1.5 mg of D-luciferin (15 mg/mL in PBS). Imaging was completed between 2-5 minutes post-injection using a Xenogen IVIS system coupled to Living Image acquisition and analysis software (Xenogen). For BLI plots, photon flux was calculated for each mouse using a rectangular region of interest (ROI) encompassing the thorax of the mouse in a prone position.

Compound: CCC/C=C/C=C/C(=O)O[C@H]1/C(=C/C(=O)OC)C[C@H]2C[C@H]([C@@H](C)O)OC(=O)C[C@H](O)C[C@@H]3C[C@H](OC(C)=O)C(C)(C)[C@](O)(C[C@@H]4C/C(=C/C(=O)OC)C[C@H](/C=C/C(C)(C)[C@]1(O)O2)O4)O3 [bryostatin-1]
- differentiation and growth of malignant cell lines [1]: induce differentiation and halt the growth of several malignant cell lines
- production of MMP-1, 3, 9, 10 and 11 ([2]; by inhibiting PKC): can inhibit the production of MMP-1, 3, 9, 10 and 11
- direct effect on activity of MMPs [2]: does not directly affect the activity of MMPs

Compound: CNC(=O)[C@H](Cc1c[nH]c2ccccc12)NC(=O)[C@@H](CC(=O)NO)CC(C)C [GM-6001, Ilomastat]
- preventing lung metastasis [3]: findings similar to those obtained using genetic knockdowns
